Results taken from patent US11795460B2, “Compositions and methods for TTR gene editing and treating ATTR amyloidosis” (Intellia Therapeutics, Inc., priority 2017, dated 2023).

Tests used:
[1] = test system: TTR; test: TTR editing in HepG2 cells transfected with Spy Cas9 mRNA and dgRNAs (Table 6); type: cell-based, human; conditions: HepG2 cells co-transfected with Spy Cas9 mRNA (SEQ ID NO:2) and dgRNAs
Experimental: HepG2 cell line. The human hepatocellular carcinoma cell line HepG2 (American Type Culture Collection, Cat. HB-8065) was cultured in DMEM media supplemented with 10% fetal bovine serum. Cells were counted and plated on Bio-coat collagen I coated 96-well plates (ThermoFisher, Cat. 877272) at a density of 10,000 cells/well in a 96-well plate 24 hours prior to transfection. Cells were transfected with Lipofectamine 2000 (ThermoFisher, Cat. 11668019) per the manufacturer's protocol. Cells were sequentially transfected with lipoplex containing Spy Cas9 mRNA (100 ng), Lipofectamine 2000 (0.2 μL/well) and OptiMem followed by a separate lipoplex containing individual crRNA (25 nM), tracer RNA (25 nM), Lipofectamine 2000 (0.2 μL/well) and OptiMem.
(§1) Transfected cells were harvested post-transfection at 24, 48, or 72 hours. The genomic DNA was extracted from each well of a 96-well plate using 50 μL/well BuccalAmp DNA Extraction solution (Epicentre, Cat. QE09050) per manufacturer's protocol. All DNA samples were subjected to PCR and subsequent NGS analyses, as described herein.
(§2) To quantitatively determine the efficiency of editing at the target location in the genome, sequencing was utilized to identify the presence of insertions and deletions introduced by gene editing.
(§3) Primers were designed around the target site within the gene of interest (e.g. TTR), and the genomic area of interest was amplified.
(§4) Additional PCR was performed per the manufacturer's protocols (Illumina) to add chemistry for sequencing. The amplicons were sequenced on an Illumina MiSeq instrument. The reads were aligned to a reference genome (e.g., the human reference genome (hg38), the cynomologus reference genome (mf5), the rat reference genome (rn6), or the mouse reference genome (mm10)) after eliminating those having low quality scores. The resulting files containing the reads were mapped to the reference genome (BAM files), where reads that overlapped the target region of interest were selected and the number of wild type reads versus the number of reads which contain an insertion, substitution, or deletion was calculated.
(§5) The editing percentage (e.g., the “editing efficiency” or “percent editing” or “indel frequency”) is defined as the total number of sequence reads with insertions/deletions (“indels”) or substitutions over the total number of sequence reads, including wild type.
(§6) Guides in dgRNA format targeting human TTR and the cynomologus matched sequences were delivered to HEK293 Cas9, HUH7 and HepG2 cell lines, as well as primary human hepatocytes and primary cynomolgus monkey hepatocytes as described in Example 1. Percent editing was determined for crRNAs comprising each guide sequence across each cell type and the guide sequences were then rank ordered based on highest % edit. The screening data for the guide sequences in Table 1 in all five cell lines are listed below (Table 4 through 11).

[2] = test system: TTR; test: TTR editing in primary human hepatocytes transfected with Spy Cas9 mRNA and dgRNAs (Table 9); type: cell-based; conditions: dgRNA co-transfected with Spy Cas9 mRNA (SEQ ID NO:2)
Experimental: (§7) Primary liver hepatocytes. Primary human liver hepatocytes (PHH) and primary cynomolgus liver hepatocytes (PCH) (Gibco) were cultured per the manufacturer's protocol (Invitrogen, protocol 11.28.2012). In brief, the cells were thawed and resuspended in hepatocyte thawing medium with supplements (Gibco, Cat. CM7000) followed by centrifugation at 100 g for 10 minutes for human and 80 g for 4 minutes for cyno. The supernatant was discarded and the pelleted cells resuspended in hepatocyte plating medium plus supplement pack (Invitrogen, Cat. A1217601 and CM3000). Cells were counted and plated on Bio-coat collagen I coated 96-well plates (ThermoFisher, Cat. 877272) at a density of 33,000 cells/well for human or 60,000 cells/well for cyno (or 65,000 cells/well when assaying effects on TTR protein, described further below). Plated cells were allowed to settle and adhere for 6 or 24 hours in a tissue culture incubator at 37° C. and 5% CO2 atmosphere. After incubation cells were checked for monolayer formation and media was replaced with hepatocyte culture medium with serum-free supplement pack (Invitrogen, Cat. A1217601 and CM4000).
Lipofectamine RNAiMax (ThermoFisher, Cat. 13778150) based transfections were conducted as per the manufacturer's protocol. Cells were sequentially transfected with a lipoplex containing Spy Cas9 mRNA (100 ng), Lipofectamine RNAiMax (0.4 μL/well) and OptiMem followed by a separate lipoplex containing crRNA (25 nM) and tracer RNA (25 nM) or sgRNA (25 nM), Lipofectamine RNAiMax (0.4 μL/well) and OptiMem.
as §1, §2, §3, §4, §5, §6

[3] = test system: TTR; test: TTR editing in primary human hepatocytes electroporated with Spy Cas9 protein loaded with dgRNAs (Table 7); type: cell-based; conditions: dgRNA electroporated with Spy Cas9 protein (RNP)
Experimental: as §7
(§8) […] formation was performed prior to electroporation or transfection of Spy Cas9 protein loaded with guide RNAs (RNPs) onto cells. For dual guide (dgRNAs), individual crRNA and trRNA was pre-annealed by mixing equivalent amounts of reagent and incubating at 95° C. for 2 min and cooling to room temperature. Single guide (sgRNAs) were boiled at 95° C. for 2 min and cooling to room temperature. The boiled dgRNA or sgRNA was incubated with Spy Cas9 protein in Optimem for 10 minutes at room temperature to form a ribonucleoprotein (RNP) complex.
(§9) For RNP electroporation into primary human and cyno hepatocytes, the cells are thawed and resuspended in Lonza electroporation Primary Cell P3 buffer at a concentration of 2500 cells per μL for human hepatocytes and 3500 cells per μL for cyno hepatocytes. A volume of 20 μL of resuspended cells and 5 μL of RNP are mixed together per guide. 20 μL of the mixture is placed into a Lonza electroporation plate. The cells were electroporated using the Lonza nucleofector with the preset protocol EX-147. Post electroporation, the cells are transferred into a Biocoat plate containing pre-warmed maintenance media and placed in a tissue culture incubator at 37° C. and 5% CO2.
as §1, §2, §3, §4
(§10) The editing percentage (e.g., the “editing efficiency” or “percent editing” or “indel frequency”) is defined as the total number of sequence reads with insertions/deletions (“indels”) or substitutions over the total number of sequence reads, including wild type. […]

[4] = test system: off-target genomic sites; test: Off-target oligo insertion based assay in HEK293_Cas9 cells, dgRNAs and sgRNAs (Tables 23, 24); type: cell-based, human; conditions: Table 23; TTR dgRNAs in HekCas9 cells, oligo insertion based assay
Experimental: An oligo insertion based assay (See, e.g., Tsai et al., Nature Biotechnology 33, 187-197; 2015) was used to determine potential off-target genomic sites cleaved by Cas9 targeting TTR. Forty-five dgRNAs from Table 1 (and two control guides with known off-target profiles) were screened in the HEK293 Cas9 cells. The human embryonic kidney adenocarcinoma cell line HEK293 constitutively expressing Spy Cas9 (“HEK293_Cas9”) was cultured in DMEM media supplemented with 10% fetal bovine serum and 500 μg/ml G418. Cells were plated at a density of 30,000 cells/well in a 96-well plate 24 hours prior to transfection. Cells were transfected with Lipofectamine RNAiMAX (ThermoFisher, Cat. 13778150) per the manufacturer's protocol. Cells were transfected with a lipoplex containing individual crRNA (15 nM), trRNA (15 nM), and donor oligo with (10 nM) Lipofectamine RNAiMAX (0.3 μL/well) and OptiMem. Cells were lysed 24 hours post transfection and genomic DNA was extracting using Zymo's Quick gDNA 96 Extraction kit (catalog #D3012) following the manufacturer's recommended protocol. The gDNA was quantified using the Qubit High Sensitivity dsDNA kit (Life Technologies). Libraries were prepared per the previously described method in Tsai et al, 2015 with minor modifications. Sequencing was performed on Illumina's MiSeq and HiSeq 2500. The assay identified potential off-target sites for some of the crRNAs which are plotted in FIG. 2.
Additionally, a subset of the guides was assessed for off-target potential as modified sgRNAs in the Hek_Cas9 cells via the oligo based insertion method described above. The off-target results were plotted in FIG. 4.

[5] = test system: TTR; test: TTR editing in primary human hepatocytes transfected with Spy Cas9 protein (RNP) loaded with dgRNAs (Table 8); type: cell-based; conditions: dgRNA transfected with Spy Cas9 protein (RNP)
Experimental: as §7, §8
For RNP lipoplex transfections, cells were transfected with Lipofectamine RNAiMAX (ThermoFisher, Cat. 13778150) per the manufacturer's protocol. Cells were transfected with an RNP containing Spy Cas9 (10 nM), individual guide (10 nM), tracer RNA (10 nM), Lipofectamine RNAiMAX (1.0 μL/well) and OptiMem. RNP formation was performed as described above.
as §1, §2, §3, §4, §5
Guides in dgRNA format targeting human TTR and the cynomologus matched sequences were delivered to HEK293 Cas9, HUH7 and HepG2 cell lines, as well as primary human hepatocytes and primary cynomolgus monkey hepatocytes as described in Example 1. […]

[6] = test system: TTR; test: TTR editing in primary cyno hepatocytes electroporated with Spy Cas9 protein and dgRNAs (Tables 10, 11); type: cell-based, cynomolgus monkey
Experimental: as §7, §8, §9, §1, §2, §3, §4, §10

[7] = primary cyno hepatocytes electroporated with Spy Cas9 protein (RNP) and cyno specific dgRNAs
[8] = Table 10, primary cyno hepatocytes electroporated with Spy Cas9 protein (RNP) and dgRNAs

Row | Sequence | Avg % Deletion [1] | Avg % Edit [1] | Avg % Insert [1] | Avg % Deletion [2] | Avg % Edit [2] | Avg % Insert [2] | Avg % Deletion [3] | Avg % Edit [3] | Avg % Insert [3] | # Sites (off-target integration sites detected) [4] | Avg % Deletion [5] | Avg % Edit [5] | Avg % Insert [5] | Avg % Deletion [6, 7] | Avg % Edit [6, 7] | Avg % Insert [6, 7] | Avg % Deletion [6, 8] | Avg % Edit [6, 8] | Avg % Insert [6, 8]
1 | GGCCGUGCAUGUGUUCAGAA (tested as dual guide RNA, chemistry not given here) [CR005304] | 54.75% | 62.82% | 8.07% | 44.47% | 45.27% | 0.83% | 61.63% | 67.00% | 5.53% | 0 | 45.13% | 49.45% | 4.32% |  |  |  |  |  | 
2 | AAGUGACUUCCAGUAAGAUU (tested as dual guide RNA, chemistry not given here) [CR005371] |  |  |  |  |  |  |  |  |  |  |  |  |  | 8.10% | 8.42% | 0.31% |  |  | 
3 | UAUAGGAAAACCAGUGAGUC (tested as dual guide RNA, chemistry not given here) [CR005305] | 1.21% | 13.51% | 12.30% | 1.60% | 7.53% | 5.93% | 0.40% | 3.83% | 3.53% |  | 0.34% | 7.07% | 6.73% |  |  |  | 0.15% | 11.28% | 11.13%
4 | AUACCAGUCCAGCGAGGCAG (tested as dual guide RNA, chemistry not given here) [CR005366] |  |  |  |  |  |  |  |  |  |  |  |  |  | 76.67% | 77.00% | 0.33% |  |  | 
5 | UGUCUGUCUUCUCUCAUAGG (tested as dual guide RNA, chemistry not given here) [CR005307] | 14.33% | 22.03% | 7.70% | 9.30% | 12.90% | 3.67% | 3.00% | 8.17% | 5.20% |  | 8.55% | 18.73% | 10.18% |  |  |  | 2.55% | 4.56% | 2.01%
6 | CCAGUCCAGCGAGGCAGAGG (tested as dual guide RNA, chemistry not given here) [CR005367] |  |  |  |  |  |  |  |  |  |  |  |  |  | 50.26% | 50.79% | 0.53% |  |  | 
7 | AAAAGGCUGCUGAUGAGACC (tested as dual guide RNA, chemistry not given here) [CR005372] |  |  |  |  |  |  |  |  |  |  |  |  |  | 17.16% | 17.98% | 0.83% |  |  | 
8 | AGCCGUGGUGGAAUAGGAGU (tested as dual guide RNA, chemistry not given here) [CR005299] | 2.30% | 38.61% | 36.32% | 0.60% | 9.43% | 8.93% | 0.35% | 8.65% | 8.30% |  | 0.58% | 19.37% | 18.79% |  |  |  | 0.26% | 13.48% | 13.23%
9 | CCUCCUCUGCCUCGCUGGAC (tested as dual guide RNA, chemistry not given here) [CR005368] |  |  |  |  |  |  |  |  |  |  |  |  |  | 27.27% | 27.60% | 0.33% |  |  | 
10 | ACACAAAUACCAGUCCAGCG (tested as dual guide RNA, chemistry not given here) [CR000689] |  |  |  |  |  |  |  |  |  |  |  |  |  | 6.30% | 24.41% | 18.11% |  |  | 
11 | AAAGUUCUAGAUGCCGUCCG (tested as dual guide RNA, chemistry not given here) [CR005369] |  |  |  |  |  |  |  |  |  |  |  |  |  | 33.92% | 42.01% | 8.09% |  |  | 
